# “And” between values parts separate entries of the source, which are not always exact repeats. Equal values may be shown once. Toxic doses and inconclusive results are not listed.
# Test system: P388 leukemia ip, CD2F1 mice, survival T/C
# Experiment: NCI In Vivo Anticancer Drug Screen. Data for tumor model P388 Leukemia (intraperitoneal) in CD2F1 (CDF1) mice
# Conditions: endpoint: median survival time, higher = longer survival
# Procedure, shortened: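 Mice carrying the transplanted tumor received test compound or vehicle. Survival was recorded in each group, and the value is the treated-group measurement divided by that of the vehicle-treated control group.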
# [1] = dose: 50.0 mg/kg/injection, schedule: Q01DX009 (ip), vehicle: Klucel (hydroxypropylcellulose) (HPC)
# [2] = dose: 100.0 mg/kg/injection, schedule: Q01DX009 (ip), vehicle: Klucel (hydroxypropylcellulose) (HPC)
# [3] = dose: 50.0 mg/kg/injection, schedule: Q01DX009 (ip), vehicle: saline
# [4] = dose: 100.0 mg/kg/injection, schedule: Q01DX009 (ip), vehicle: saline
# [5] = dose: 200.0 mg/kg/injection, schedule: Q01DX009 (ip), vehicle: saline
# [6] = dose: 100.0 mg/kg/injection, schedule: Q01DX001 (ip), vehicle: Klucel (hydroxypropylcellulose) (HPC)
# [7] = dose: 200.0 mg/kg/injection, schedule: Q01DX001 (ip), vehicle: Klucel (hydroxypropylcellulose) (HPC)
# [8] = dose: 100.0 mg/kg/injection, schedule: Q01DX001 (ip), vehicle: saline with Tween-80
# [9] = dose: 200.0 mg/kg/injection, schedule: Q01DX009 (ip), vehicle: Klucel (hydroxypropylcellulose) (HPC)
# [10] = dose: 50.0 mg/kg/injection, schedule: Q01DX005 (ip), vehicle: saline
# [11] = dose: 100.0 mg/kg/injection, schedule: Q01DX005 (ip), vehicle: saline
# [12] = dose: 12.5 mg/kg/injection, schedule: Q01DX009 (ip), vehicle: other
# [13] = dose: 25.0 mg/kg/injection, schedule: Q01DX009 (ip), vehicle: other
# [14] = dose: 60.0 mg/kg/injection, schedule: Q01DX005 (ip), vehicle: saline
# [15] = dose: 120.0 mg/kg/injection, schedule: Q01DX005 (ip), vehicle: saline
# [16] = dose: 240.0 mg/kg/injection, schedule: Q01DX005 (ip), vehicle: saline
smiles,measurement,setting,value
O=C(NCCN1CCCCC1)c1ccc(Cl)cc1Cl,T/C,[1],101 % of control
same,T/C,[2],98 % of control
CS(=O)(=O)N(C=O)c1ccccc1,T/C,[3],110 % of control
same,T/C,[4],100 % of control
same,T/C,[5],96 % of control
COc1cc(OC)c(-c2cc3ccc(OCc4ccccc4)cc3oc2=O)cc1OC,T/C,[6],102 % of control
same,T/C,[7],105 % of control
same,T/C,"dose: 400.0 mg/kg/injection, schedule: Q01DX001 (ip), vehicle: Klucel (hydroxypropylcellulose) (HPC)",94 % of control
O=S(=O)(O)CC[S][Sn]([S]CCS(=O)(=O)O)([c]1ccccc1)[c]1ccccc1,T/C,"dose: 3.75 mg/kg/injection, schedule: Q01DX005 (ip), vehicle: Klucel (hydroxypropylcellulose) (HPC)",153 % of control
COc1ccc2c(c1)[C@]13CCN(N=O)[C@H](C2)[C@@H]1CCC(=O)C3,T/C,"dose: 25.0 mg/kg/injection, schedule: Q01DX001 (ip), vehicle: saline with Tween-80",92 % of control
same,T/C,"dose: 50.0 mg/kg/injection, schedule: Q01DX001 (ip), vehicle: saline with Tween-80",108 % of control
same,T/C,[8],106 % of control and 92 % of control
OC(/C=C/CC(O)(C(F)(F)F)C(F)(F)F)(C(F)(F)F)C(F)(F)F,T/C,[3],100 % of control
same,T/C,[4],98 % of control
CCOP(O)(=S)OCC.[Ti],T/C,[1],96 % of control
same,T/C,[2],101 % of control
same,T/C,[9],92 % of control
CN(C)CCCNc1ccc2ccc3c(NCCCN(C)C)ccc4ccc1c2c43,T/C,"dose: 12.5 mg/kg/injection, schedule: Q01DX009 (ip), vehicle: Klucel (hydroxypropylcellulose) (HPC)",99 % of control
same,T/C,"dose: 25.0 mg/kg/injection, schedule: Q01DX009 (ip), vehicle: Klucel (hydroxypropylcellulose) (HPC)",102 % of control
same,T/C,[1],99 % of control and 112 % of control
same,T/C,[2],103 % of control
O=C(c1ccc(F)cc1)c1no[n+]([O-])c1C(=O)c1ccc(F)cc1,T/C,"dose: 37.5 mg/kg/injection, schedule: Q01DX009 (ip), vehicle: saline with Tween-80",122 % of control
same,T/C,"dose: 75.0 mg/kg/injection, schedule: Q01DX009 (ip), vehicle: saline with Tween-80",118 % of control
CCN(CC)CCN1C(=O)c2cccc3c(N)c(OC)cc(c23)C1=O,T/C,"dose: 25.0 mg/kg/injection, schedule: Q01DX005 (ip), vehicle: saline",103 % of control
same,T/C,[10],100 % of control and 97 % of control
same,T/C,[11],100 % of control and 104 % of control
OCCSCc1ccc(F)cc1,T/C,"dose: 50.0 mg/kg/injection, schedule: Q01DX005 (ip), vehicle: Klucel (hydroxypropylcellulose) (HPC)",101 % of control
same,T/C,"dose: 100.0 mg/kg/injection, schedule: Q01DX005 (ip), vehicle: Klucel (hydroxypropylcellulose) (HPC)",97 % of control
same,T/C,"dose: 200.0 mg/kg/injection, schedule: Q01DX005 (ip), vehicle: Klucel (hydroxypropylcellulose) (HPC)",104 % of control
CC1(C)OC(=O)N(CO)C1=O,T/C,[3],109 % of control
same,T/C,[4],119 % of control
same,T/C,[5],100 % of control
CN(C)C(=O)CC(O)c1ccccc1 (stereo not drawn),T/C,[10],102 % of control
same,T/C,[11],105 % of control
same,T/C,"dose: 200.0 mg/kg/injection, schedule: Q01DX005 (ip), vehicle: saline",100 % of control
CC(C)(C)OC(=O)NNS(=O)(=O)CCC(N)C(=O)O (stereo not drawn),T/C,[12],106 % of control
same,T/C,[13],106 % of control
same,T/C,"dose: 50.0 mg/kg/injection, schedule: Q01DX009 (ip), vehicle: other",97 % of control
same,T/C,"dose: 100.0 mg/kg/injection, schedule: Q01DX009 (ip), vehicle: other",97 % of control
same,T/C,"dose: 200.0 mg/kg/injection, schedule: Q01DX009 (ip), vehicle: other",100 % of control
CN1/C(=C/C=C/C(I)=C/C=C/C2=[N+](C)c3ccccc3C2(C)C)C(C)(C)c2ccccc21,T/C,"dose: 3.13 mg/kg/injection, schedule: Q01DX009 (ip), vehicle: saline with Tween-80",121 % of control
same,T/C,"dose: 6.25 mg/kg/injection, schedule: Q01DX009 (ip), vehicle: saline with Tween-80",123 % of control
same,T/C,"dose: 12.5 mg/kg/injection, schedule: Q01DX009 (ip), vehicle: saline with Tween-80",120 % of control
same,T/C,"dose: 25.0 mg/kg/injection, schedule: Q01DX009 (ip), vehicle: saline with Tween-80",124 % of control
CC1C(=O)OC2C(O)C34C5OC(=O)C3(OC3OC(=O)C(O)C34C(C(C)(C)C)C5O)C12O (stereo not drawn),T/C,"dose: 5.0 mg/kg/injection, schedule: Q01DX005 (ip), vehicle: Klucel (hydroxypropylcellulose) (HPC)",93 % of control
same,T/C,"dose: 10.0 mg/kg/injection, schedule: Q01DX005 (ip), vehicle: Klucel (hydroxypropylcellulose) (HPC)",95 % of control
same,T/C,"dose: 20.0 mg/kg/injection, schedule: Q01DX005 (ip), vehicle: Klucel (hydroxypropylcellulose) (HPC)",89 % of control
same,T/C,"dose: 40.0 mg/kg/injection, schedule: Q01DX005 (ip), vehicle: Klucel (hydroxypropylcellulose) (HPC)",93 % of control
same,T/C,"dose: 80.0 mg/kg/injection, schedule: Q01DX005 (ip), vehicle: Klucel (hydroxypropylcellulose) (HPC)",89 % of control
CC1=NCc2c(nnn2C)N1,T/C,[6],104 % of control
same,T/C,[7],101 % of control
CC(Oc1ccc(Oc2ccc(Cl)cc2)cc1)C(=O)O (stereo not drawn),T/C,[1],102 % of control
same,T/C,[2],90 % of control
same,T/C,[9],89 % of control
COc1cccc(S(=O)c2ccc([N+](=O)[O-])c3no[n+]([O-])c23)c1 (stereo not drawn),T/C,"dose: 3.75 mg/kg/injection, schedule: Q01DX009 (ip), vehicle: saline with Tween-80",95 % of control
same,T/C,"dose: 7.5 mg/kg/injection, schedule: Q01DX009 (ip), vehicle: saline with Tween-80",104 % of control
same,T/C,"dose: 15.0 mg/kg/injection, schedule: Q01DX009 (ip), vehicle: saline with Tween-80",112 % of control
C[N+](C)(C)CC[N+](C)(C)Cc1cccc2ccccc12,T/C,[3],106 % of control
same,T/C,[4],107 % of control
CN(CCC[NH-])CCC[NH-].[Cl][Pd][Cl],T/C,"dose: 25.0 mg/kg/injection, schedule: Q04DX002 (ip), vehicle: saline",102 % of control
same,T/C,"dose: 50.0 mg/kg/injection, schedule: Q04DX002 (ip), vehicle: saline",102 % of control
same,T/C,"dose: 100.0 mg/kg/injection, schedule: Q04DX002 (ip), vehicle: saline",98 % of control
O=c1c(CO)c(-c2ccccc2)oc2ccccc12,T/C,"dose: 100.0 mg/kg/injection, schedule: Q04DX002 (ip), vehicle: Klucel (hydroxypropylcellulose) (HPC)",115 % of control
same,T/C,"dose: 200.0 mg/kg/injection, schedule: Q04DX002 (ip), vehicle: Klucel (hydroxypropylcellulose) (HPC)",98 % of control
same,T/C,"dose: 400.0 mg/kg/injection, schedule: Q04DX002 (ip), vehicle: Klucel (hydroxypropylcellulose) (HPC)",101 % of control
O=C1CCC(=O)N1CCCN1CCOCC1,T/C,[14],89 % of control
same,T/C,[15],88 % of control
same,T/C,[16],99 % of control
CCOC(=O)CC1(C)c2nc(NC(C)=O)sc2Cc2sc(NC(C)=O)nc21,T/C,[14],101 % of control
same,T/C,[15],100 % of control
same,T/C,[16],100 % of control
COc1cccc2c1C(=O)c1c(O)c3c(c(O)c1C2=O)CC(O)(C1(O)CSC(C)=N1)CC3O (stereo not drawn),T/C,"dose: 1.56 mg/kg/injection, schedule: Q01DX009 (ip), vehicle: other",102 % of control
same,T/C,"dose: 3.13 mg/kg/injection, schedule: Q01DX009 (ip), vehicle: other",104 % of control
same,T/C,"dose: 6.25 mg/kg/injection, schedule: Q01DX009 (ip), vehicle: other",104 % of control
same,T/C,[12],105 % of control
same,T/C,[13],98 % of control
same,T/C,"dose: 25.0 mg/kg/injection, schedule: Q01DX009 (ip), vehicle: water",101 % of control
same,T/C,"dose: 50.0 mg/kg/injection, schedule: Q01DX009 (ip), vehicle: water",101 % of control
same,T/C,"dose: 100.0 mg/kg/injection, schedule: Q01DX009 (ip), vehicle: water",121 % of control
CC(C)(C)c1ccc(O)c(C(c2cc(C(C)(C)C)ccc2O)c2cc(C(C)(C)C)ccc2O)c1,T/C,[8],97 % of control
same,T/C,"dose: 200.0 mg/kg/injection, schedule: Q01DX001 (ip), vehicle: saline with Tween-80",98 % of control
same,T/C,"dose: 400.0 mg/kg/injection, schedule: Q01DX001 (ip), vehicle: saline with Tween-80",98 % of control
O=C1NCCCC1(c1ccccc1)c1ccccc1,T/C,[3],98 % of control
same,T/C,[4],102 % of control
same,T/C,[5],97 % of control
CNC(=O)c1cc([N+](=O)[O-])cnc1NC,T/C,[1],95 % of control
same,T/C,[2],98 % of control
same,T/C,[9],92 % of control

# — PubChem BioAssay AID330 (DTP/NCI, 2004)
